Data: patent US20220281821A1, “INDAZOLE COMPOUNDS AND THEIR PHARMACEUTICAL COMPOSITIONS” (Jinan University, priority 2019, published 2022)

What was measured:
BaF3-CD74-NTRK1 = biological target: T1, BaF3-CD74-NTRK1 (Homo sapiens, UniProt P04629); experiment: Cell proliferation inhibition (CCK-8), BaF3-CD74-NTRK1 stable strain; format: cell-based, mouse; details: BaF3-CD74-NTRK1, 72 hours
T1 construct: fused on or other part: P04233 (HLA class II histocompatibility antigen gamma chain)
How it was run: (§1)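 Ba/F3 cells stably electroporated with ETV6-NTRK3, CD74-NTRK1 or ETV6-NTRK2, selected with G418 and grown without IL3, then cloned by limiting dilution.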

BaF3-ETV6-NTRK3 = biological target: T2, BaF3-ETV6-NTRK3 (Homo sapiens, UniProt Q16288); experiment: Cell proliferation inhibition (CCK-8), BaF3-ETV6-NTRK3 stable strain; format: cell-based, mouse; details: BaF3-ETV6-NTRK3, 72 hours
T2 construct: fused on or other part: P41212 (Transcription factor ETV6)
How it was run: as §1

TRKB = biological target: T3, TRKB (Homo sapiens, UniProt Q16620); experiment: Z′-LYTE kinase activity assay, TRKB; format: biochemical; details: ATP 25 uM
T3 construct: purchased life technologies PV3616
Source text: (§2) Kinase activity assay: Z′-LYTE™ technology (detection by fluorescence, enzyme-conjugated format, based on the difference in sensitivity of phosphorylated and non-phosphorylated peptides to proteolytic cleavage) was applied, and using the principle of fluorescence resonance energy transfer (FRET), a Z′-LYTE™ FRET peptide substrate (Z′-LYTE™ Tyrosine 1 Peptide Substrate, Invitrogen, PV3190), and a secondary reaction were used to detect the inhibitory activity of the compounds on TRKs (TRK1, TRK2, TRK3) (life technologies, PV3144, PV3616, PV3617).
(§3) Enzymatic reaction: In a 384-well plate, 5 μL of an enzyme-substrate system (50 mM HEPES pH 7.5, 0.01% BRIJ-35, 10 mM MgCl2, 1 mM EGTA, 2 μM Tyr 01 Peptide Substrate) was added and 5 nL of compound (concentration gradient) was transferred thereto by using the echo520 ultramicro liquid pipetting system. […] After shaking and mixing, centrifuging was performed. A reaction was carried out at 30° C. in the dark for 1.5 hours.
(§4) The data were analyzed as follows:
(§5) Phosphorylation ratio=1−{(emission ratio×F100%−C100%)/[C0%−C100%+emission ratio×(F100%−F0%)]}×100;
(§6) Inhibition rate=100×(1−compound phosphorylation ratio/negative control phosphorylation ratio).
(§7) IC50 values were calculated by using GraphPad Prism 5.0 software.

BaF3-ETV6-NTRK2 = biological target: T4, BaF3-ETV6-NTRK2 (Homo sapiens, UniProt Q16620); experiment: Cell proliferation inhibition (CCK-8), BaF3-ETV6-NTRK2 stable strain; format: cell-based, mouse; details: BaF3-ETV6-NTRK2, 72 hours
T4 construct: fused on or other part: P41212 (Transcription factor ETV6)
How it was run: as §1

TRKC = biological target: T5, TRKC (Homo sapiens, UniProt Q16288); experiment: Z′-LYTE kinase activity assay, TRKC; format: biochemical; details: ATP 50 uM
T5 construct: purchased life technologies PV3617
Source text: as §2, §3, §4, §7

TRKA = biological target: T6, TRKA (Homo sapiens, UniProt P04629); experiment: Z′-LYTE kinase activity assay, TRKA; format: biochemical; details: ATP 400 uM
T6 construct: purchased life technologies PV3144
Source text: as §2, §3, §4, §5, §6, §7

T6 sequence (P04629 440-796 limits assumed): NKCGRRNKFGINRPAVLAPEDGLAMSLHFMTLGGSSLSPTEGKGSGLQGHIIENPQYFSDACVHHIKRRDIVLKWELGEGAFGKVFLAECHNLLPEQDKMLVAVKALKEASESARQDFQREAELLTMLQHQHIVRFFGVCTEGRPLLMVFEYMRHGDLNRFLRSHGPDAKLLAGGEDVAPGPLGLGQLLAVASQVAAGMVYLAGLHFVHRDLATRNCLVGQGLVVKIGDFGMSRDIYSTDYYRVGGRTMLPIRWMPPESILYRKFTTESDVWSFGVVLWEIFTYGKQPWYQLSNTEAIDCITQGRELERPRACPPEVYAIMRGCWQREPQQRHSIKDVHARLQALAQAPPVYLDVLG
T2 sequence (Q16288 whole entry, the tested form may be a part): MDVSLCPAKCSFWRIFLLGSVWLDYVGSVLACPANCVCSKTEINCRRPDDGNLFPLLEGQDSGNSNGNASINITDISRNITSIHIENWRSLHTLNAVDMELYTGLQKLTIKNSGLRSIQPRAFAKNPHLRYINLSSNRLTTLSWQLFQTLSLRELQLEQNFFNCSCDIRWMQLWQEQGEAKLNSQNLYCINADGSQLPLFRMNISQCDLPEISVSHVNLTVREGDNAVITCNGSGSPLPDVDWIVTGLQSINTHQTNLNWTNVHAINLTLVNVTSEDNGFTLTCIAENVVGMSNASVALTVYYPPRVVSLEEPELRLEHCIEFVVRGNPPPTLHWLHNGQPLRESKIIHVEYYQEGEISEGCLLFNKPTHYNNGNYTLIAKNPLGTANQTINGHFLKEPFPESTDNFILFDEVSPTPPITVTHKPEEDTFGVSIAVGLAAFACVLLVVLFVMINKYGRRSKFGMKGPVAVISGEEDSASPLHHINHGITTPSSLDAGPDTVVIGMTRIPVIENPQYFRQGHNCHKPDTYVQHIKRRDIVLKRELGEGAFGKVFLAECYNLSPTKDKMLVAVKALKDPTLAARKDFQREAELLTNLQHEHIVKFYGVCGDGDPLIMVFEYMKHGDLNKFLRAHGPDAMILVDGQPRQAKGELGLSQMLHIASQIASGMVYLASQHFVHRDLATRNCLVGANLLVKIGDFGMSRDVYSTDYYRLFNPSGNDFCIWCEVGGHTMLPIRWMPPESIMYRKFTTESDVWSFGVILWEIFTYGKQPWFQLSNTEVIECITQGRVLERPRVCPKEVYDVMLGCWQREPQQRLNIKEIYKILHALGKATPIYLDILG
T5 sequence (Q16288 32-839): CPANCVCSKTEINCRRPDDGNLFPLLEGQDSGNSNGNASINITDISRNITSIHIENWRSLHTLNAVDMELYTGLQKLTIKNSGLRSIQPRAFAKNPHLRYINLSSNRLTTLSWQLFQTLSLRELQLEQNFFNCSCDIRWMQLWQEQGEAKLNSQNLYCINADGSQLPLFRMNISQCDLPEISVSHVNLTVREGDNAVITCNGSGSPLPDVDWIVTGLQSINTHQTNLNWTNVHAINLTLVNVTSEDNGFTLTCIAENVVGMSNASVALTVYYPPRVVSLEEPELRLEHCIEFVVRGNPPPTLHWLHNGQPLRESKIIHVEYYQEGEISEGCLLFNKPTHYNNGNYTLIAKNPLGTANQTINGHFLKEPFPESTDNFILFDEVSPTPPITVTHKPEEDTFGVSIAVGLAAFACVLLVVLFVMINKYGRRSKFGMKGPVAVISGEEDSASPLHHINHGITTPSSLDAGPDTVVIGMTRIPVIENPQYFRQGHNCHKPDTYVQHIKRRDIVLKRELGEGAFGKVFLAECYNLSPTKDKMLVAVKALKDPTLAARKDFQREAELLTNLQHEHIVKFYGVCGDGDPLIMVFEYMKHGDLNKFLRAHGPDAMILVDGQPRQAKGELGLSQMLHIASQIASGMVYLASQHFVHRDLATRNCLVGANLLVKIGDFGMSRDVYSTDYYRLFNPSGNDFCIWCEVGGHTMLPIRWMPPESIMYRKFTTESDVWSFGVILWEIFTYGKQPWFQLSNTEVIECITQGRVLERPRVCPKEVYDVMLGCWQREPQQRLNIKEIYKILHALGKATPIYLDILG
T1 sequence (P04629 510-796 limits assumed): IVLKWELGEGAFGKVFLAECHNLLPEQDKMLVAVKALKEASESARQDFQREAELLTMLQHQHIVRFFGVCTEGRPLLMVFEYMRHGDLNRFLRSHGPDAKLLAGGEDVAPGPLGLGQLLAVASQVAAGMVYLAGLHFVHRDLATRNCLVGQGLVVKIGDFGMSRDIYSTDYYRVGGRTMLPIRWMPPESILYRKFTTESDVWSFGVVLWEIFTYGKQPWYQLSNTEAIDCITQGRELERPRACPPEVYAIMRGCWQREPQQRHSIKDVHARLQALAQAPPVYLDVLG
T4 sequence (Q16620 538-822 limits assumed): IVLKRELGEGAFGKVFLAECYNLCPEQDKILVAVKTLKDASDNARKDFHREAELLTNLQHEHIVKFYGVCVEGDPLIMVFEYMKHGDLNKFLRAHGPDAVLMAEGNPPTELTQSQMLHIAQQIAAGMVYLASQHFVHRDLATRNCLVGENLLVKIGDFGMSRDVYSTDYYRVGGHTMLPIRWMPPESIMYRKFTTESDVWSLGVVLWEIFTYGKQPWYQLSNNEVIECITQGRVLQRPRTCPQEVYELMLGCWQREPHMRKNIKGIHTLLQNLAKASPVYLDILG
T3 sequence (Q16620 32-822): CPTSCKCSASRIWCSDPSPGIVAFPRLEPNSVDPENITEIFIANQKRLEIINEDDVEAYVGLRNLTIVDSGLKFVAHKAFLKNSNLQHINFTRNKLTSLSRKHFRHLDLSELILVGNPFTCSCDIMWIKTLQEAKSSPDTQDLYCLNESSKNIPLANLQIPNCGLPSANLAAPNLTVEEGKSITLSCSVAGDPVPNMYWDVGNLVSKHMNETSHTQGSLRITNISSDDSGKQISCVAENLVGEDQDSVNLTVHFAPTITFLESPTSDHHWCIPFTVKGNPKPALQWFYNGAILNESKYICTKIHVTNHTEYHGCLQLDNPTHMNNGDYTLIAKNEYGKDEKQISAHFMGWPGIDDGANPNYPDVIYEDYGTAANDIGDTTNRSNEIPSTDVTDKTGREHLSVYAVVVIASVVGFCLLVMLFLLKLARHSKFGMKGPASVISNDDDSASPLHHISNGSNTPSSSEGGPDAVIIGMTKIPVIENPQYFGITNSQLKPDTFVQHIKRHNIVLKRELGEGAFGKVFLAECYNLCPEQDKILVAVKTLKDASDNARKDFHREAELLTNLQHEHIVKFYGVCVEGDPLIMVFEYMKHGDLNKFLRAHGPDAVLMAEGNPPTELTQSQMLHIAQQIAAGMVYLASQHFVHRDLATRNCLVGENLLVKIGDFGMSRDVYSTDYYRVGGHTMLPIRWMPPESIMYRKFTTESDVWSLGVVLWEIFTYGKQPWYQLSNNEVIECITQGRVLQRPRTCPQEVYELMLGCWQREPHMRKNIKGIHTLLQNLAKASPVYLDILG

Row | SMILES | IC50 (BaF3-CD74-NTRK1) [nM] | IC50 (BaF3-ETV6-NTRK3) [nM] | IC50 (TRKB) [nM] | IC50 (BaF3-ETV6-NTRK2) [nM] | IC50 (TRKC) [nM] | IC50 (TRKA) [nM]
1 | N#Cc1cccc(Cc2ccc3[nH]nc(/C=C/c4ccccn4)c3c2)c1 [DYX-136X, (E)-3-((3-(2-(pyridin-2-yl)vinyl)-1H-indazol-5-yl)methyl)benzonitrile] | 603 | 733 | 91 | 1070 | 5.8 | 4.8
2 | Cc1cccc(Cc2ccc3[nH]nc(C#Cc4ccccn4)c3c2)c1 [DYX-137Q, 5-(3-methylbenzyl)-3-(pyridin-2-ylethynyl)-1H-indazole] | > 10000 | > 10000 | 397 | > 10000 | 91.1 | 213
3 | Cc1cccc(Cc2ccc3[nH]nc(/C=C/c4ccccn4)c3c2)c1 [DYX-137X, (E)-5-(3-methylbenzyl)-3-(2-(pyridin-2-yl)vinyl)-1H-indazole] | 2420 | 3180 | 80.8 | 3720 | 21.9 | 33.8
4 | FC(F)(F)c1cccc(Cc2ccc3[nH]nc(/C=C/c4ccccn4)c3c2)c1 [DYX-138X, (E)-3-(2-(pyridin-2-yl)vinyl)-5-(3-(trifluoromethyl)benzyl)-1H-indazole] | 6650 | > 10000 | 356 | 4080 | 262 | 757
5 | CN(c1cc(F)cc(F)c1)c1ccc2[nH]nc(/C=C/c3ccccn3)c2c1 [DYX-139, (E)-N-(3,5-difluorophenyl)-N-methyl-3-(2-(pyridin-2-yl)vinyl)-1H-indazol-5-amine] | 2360 | 1270 | 25.7 | 1790 | 18.1 | 15
6 | O=S(=O)(c1cc(F)cc(F)c1)c1cc2c(/C=C/c3ccccn3)n[nH]c2cn1 [DYX-149, (E)-5-((3,5-difluorophenyl)sulfonyl)-3-(2-(pyridin-2-yl)vinyl)-1H-pyrazolo[3,4-c]pyridine] | 3080 | 3100 | > 1000 | 2460 | 155 | 318
7 | O=S(=O)(c1cc(F)cc(F)c1)c1ccc2[nH]nc(/C=C/c3ccccn3)c2n1 [DYX-150, (E)-5-((3,5-difluorophenyl)sulfonyl)-3-(2-(pyridin-2-yl)vinyl)-1H-pyrazolo[4,3-b]pyridine] | 65.2 | 120 | 9.4 | 163 | 4.1 | 3.3
8 | O=C(Nc1ccc2[nH]nc(/C=C/c3ccccn3)c2c1)c1cc(F)cc(F)c1 [DYX-164, (E)-3,5-difluoro-N-(3-(2-(pyridin-2-yl)vinyl)-1H-indazol-5-yl)benzamide] | 1930 | 2240 | 741 | 2580 | 226 | 196
9 | Fc1ccc(F)c([C@H]2CCCN2c2ccc3[nH]nc(/C=C/c4ccccn4)c3c2)c1 [DYX-170, (R,E)-5-(2-(2,5-difluorophenyl)pyrrolidin-1-yl)-3-(2-(pyridin-2-yl)vinyl)-1H-indazole] | 99.4 | 167 | 18.4 | 242 | 1.9 | 8.1
10 | O=C(Nc1cc(F)cc(F)c1)c1ccc2[nH]nc(/C=C/c3ccccn3)c2c1 [DYX-171, (E)-N-(3,5-difluorophenyl)-3-(2-(pyridin-2-yl)vinyl)-1H-indazole-5-carboxamide] | 8040 | 2640 | > 1000 | 2730 | 532 | 577
11 | O=C(Nc1cc(F)cc(F)c1)Nc1ccc2[nH]nc(/C=C/c3ccccn3)c2c1 [DYX-174, (E)-1-(3,5-difluorophenyl)-3-(3-(2-(pyridin-2-yl)vinyl)-1H-indazol-5-yl)urea] | 1180 | 623 | 242 | 1910 | 94.1 | 46.8
12 | Fc1cc(F)cc(OCc2ccc3[nH]nc(/C=C/c4ccccn4)c3c2)c1 [DYX-176] | 627 | 1040 | 21.4 | 2520 | 6.5 | 7.1
